Values quoted from earlier work, collected in patent US20220095646A1, “METHODS FOR THE PRODUCTION AND USE OF MYCELIATED AMINO ACID-SUPPLEMENTED FOOD COMPOSITIONS” (MycoTechnology, Inc., priority 2019, published 2022).

Row | SMILES | Taste thresholds (Kato et al. 1989), sour [mg/mL] | Taste thresholds (Kato et al. 1989), umami [mg/mL] | Taste thresholds (Kato et al. 1989), bitter | further results
1 | N[C@@H](CC(=O)O)C(=O)O [Aspartic acid] | 0.03 | 1 |  | 
2 | N[C@@H](CCC(=O)O)C(=O)O [Glutamic acid] | 0.05 | 0.3 |  | 
3 | CC[C@H](C)[C@H](N)C(=O)O [Isoleucine] |  |  | 0.9 (bitter) mg/mL | 
4 | NCCCC[C@H](N)C(=O)O [Lysine] |  |  |  | Taste thresholds (Kato et al. 1989), sweet and bitter (sweet and bitter): 0.5 (sweet and bitter) mg/mL
5 | C[C@@H](O)[C@H](N)C(=O)O [Threonine] |  |  |  | Taste thresholds (Kato et al. 1989), sweet (sweet): 2.6 (sweet) mg/mL
6 | CC(C)[C@H](N)C(=O)O [Valine] |  |  | 0.4 (bitter) mg/mL | 
